Source: the supplement of paper PMC10307832

How the values were obtained:
Experiment in all cases: relative viability (nuclei count vs DMSO), 5 days (fraction); higher = more cells survive
[1] = compound: CC[C@H](C)N1C=C(C2=C(C=C(C=C21)C3=CN=C(C=C3)N4CCNCC4)C(=O)NCC5=C(C=C(NC5=O)C)C)C [GSK126] + Cc1cc(Nc2cc(N3CCN(C)CC3)nc(Sc3ccc(NC(=O)C4CC4)cc3)n2)n[nH]1 [Tozasertib] (partner 0.1 µM)
Method in brief: (§1)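 One day after seeding in 1536-well plates, lung cancer cell lines were dosed by pin tool. Dosing was either single-drug or a fixed anchor-drug dose plus five library-drug doses (not always all listed) in √10 steps. After 5 days, nuclei were stained in one fix-and-stain step and counted on 4× images, and relative viability is the nuclei count of treated wells over that of vehicle wells, given as the median of duplicate plates.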

[2] = compound: C1CC(C1)(C(=O)O)C(=O)O.[NH2-].[NH2-].[Pt+2] [Carboplatin] + COc1cccc2cc(-c3nc([C@H]4CC[C@H](C(=O)O)CC4)n4ncnc(N)c34)[nH]c12 [OSI-027] (partner 0.5 µM)
Method in brief: as §1

[3] = compound: NS(=O)(=O)OC[C@@H]1C[C@@H](n2ccc3c(N[C@H]4CCc5ccccc54)ncnc32)C[C@@H]1O [MLN4924] + O=C(CCCCCCC(=O)Nc1ccccc1)NO [Vorinostat] (partner 1 µM)
Method in brief: as §1

[4] = compound: NS(=O)(=O)OC[C@@H]1C[C@@H](n2ccc3c(N[C@H]4CCc5ccccc54)ncnc32)C[C@@H]1O [MLN4924] + C[C@@H](Oc1cc(-c2cnn(C3CCNCC3)c2)cnc1N)c1c(Cl)ccc(F)c1Cl [Crizotinib] (partner 1 µM)
Method in brief: as §1

| Cell Line | relative viability ([1]; first compound 0.08 µM) | relative viability ([1]; first compound 0.253 µM) | relative viability ([1]; first compound 0.8 µM) | relative viability ([1]; first compound 2.53 µM) | relative viability ([1]; first compound 8 µM) | relative viability ([2]; first compound 0.08 µM) | relative viability ([2]; first compound 0.253 µM) | relative viability ([2]; first compound 0.8 µM) | relative viability ([2]; first compound 2.53 µM) | relative viability ([2]; first compound 8 µM) | relative viability ([3]; first compound 0.04 µM) | relative viability ([3]; first compound 0.1265 µM) | relative viability ([3]; first compound 0.4 µM) | relative viability ([3]; first compound 1.265 µM) | relative viability ([3]; first compound 4 µM) | relative viability ([4]; first compound 0.04 µM) | relative viability ([4]; first compound 0.1265 µM) | relative viability ([4]; first compound 0.4 µM) | relative viability ([4]; first compound 1.265 µM) | relative viability ([4]; first compound 4 µM) |
| --- | --- | --- | --- | --- | --- | --- | --- | --- | --- | --- | --- | --- | --- | --- | --- | --- | --- | --- | --- | --- |
| NCI-H2342 | 0.538 | 0.471 | 0.613 | 0.507 | 0.597 | 0.785 | 0.731 | 0.717 | 0.534 | 0.608 | 0.809 | 0.814 | 0.837 | 0.873 | 0.625 |  |  |  |  |  |
| NCI-H2087 | 0.23 | 0.222 | 0.214 | 0.202 | 0.258 | 0.656 | 0.56 | 0.536 | 0.508 | 0.41 | 0.784 | 0.43 | 0.135 | 0.0537 | 0.125 | 0.696 | 0.802 | 0.411 | 0.224 | 0.139 |
| NCI-H596 | 0.933 | 1.03 | 0.894 | 0.89 | 0.933 | 0.909 | 0.803 | 0.781 | 0.654 | 0.514 | 0.471 | 0.597 | 0.601 | 0.382 | 0.418 | 0.886 | 1.1 | 0.501 | 0.961 | 0.758 |
| ChaGo-K-1 | 0.237 | 0.238 | 0.216 | 0.233 | 0.201 | 0.614 | 0.473 | 0.527 | 0.42 | 0.316 | 0.681 | 0.593 | 0.299 | 0.167 | 0.174 | 0.908 | 0.595 | 0.451 | 0.325 | 0.324 |
| SW 1573 | 0.222 | 0.211 | 0.159 | 0.176 | 0.198 | 0.653 | 0.694 | 0.67 | 0.617 | 0.437 | 0.48 | 0.521 | 0.14 | 0.0422 | 0.0551 | 0.802 | 0.734 | 0.748 | 0.0862 | 0.0778 |
| LCLC-97TM1 | 0.244 | 0.223 | 0.188 | 0.225 | 0.176 | 0.481 | 0.615 | 0.594 | 0.554 | 0.474 | 0.742 | 0.503 | 0.0752 | 0.0454 | 0.0589 | 0.27 | 0.202 | 0.151 | 0.123 | 0.0984 |
| HCC-366 | 0.193 | 0.117 | 0.123 | 0.0783 | 0.0929 | 1.07 | 0.979 | 0.911 | 0.955 | 0.486 | 0.327 | 0.348 | 0.322 | 0.0422 | 0.0392 | 0.603 | 0.66 | 0.797 | 0.211 | 0.0183 |
| HARA | 0.131 | 0.0947 | 0.0975 | 0.0847 | 0.106 | 0.619 | 0.644 | 0.476 | 0.462 | 0.385 | 0.48 | 0.144 | 0.174 | 0.0809 | 0.0682 | 0.752 | 0.401 | 0.349 | 0.0875 | 0.0794 |
| NCI-H1915 | 0.486 | 0.436 | 0.447 | 0.438 | 0.415 | 0.616 | 0.576 | 0.673 | 0.601 | 0.408 | 0.52 | 0.503 | 0.339 | 0.149 | 0.143 | 0.862 | 0.751 | 0.844 | 0.19 | 0.15 |
| NCI-H1650 | 0.42 | 0.455 | 0.394 | 0.356 | 0.3 | 0.736 | 0.593 | 0.653 | 0.574 | 0.341 | 0.411 | 0.352 | 0.22 | 0.109 | 0.176 | 1.04 | 0.658 | 0.333 | 0.202 | 0.166 |
| NCI-H522 | 0.535 | 0.507 | 0.503 | 0.527 | 0.605 | 0.741 | 0.711 | 0.567 | 0.685 | 0.7 | 0.704 | 0.726 | 0.567 | 0.344 | 0.378 |  |  |  |  |  |
| Calu-6 |  |  |  |  |  |  |  |  |  |  |  |  |  |  |  | 0.677 | 0.426 | 0.197 | 0.0922 | 0.0977 |
| IA-LM |  |  |  |  |  |  |  |  |  |  | 0.653 | 0.194 | 0.17 | 0.0544 | 0.0516 | 0.314 | 0.211 | 0.134 | 0.0572 | 0.0763 |
| EBC-1 |  |  |  |  |  |  |  |  |  |  |  |  |  |  |  | 0.167 | 0.189 | 0.215 | 0.149 | 0.156 |
| SW 900 | 0.577 | 0.534 | 0.635 | 0.632 | 0.51 | 0.726 | 0.533 | 0.49 | 0.465 | 0.412 |  | 0.414 | 0.182 | 0.175 | 0.208 |  |  |  |  |  |
| NCI-H1792 |  |  |  |  |  | 0.724 | 0.691 | 0.824 | 0.679 | 0.566 |  |  |  |  |  | 0.961 | 0.906 | 0.834 | 0.69 | 0.346 |
| NCI-H1703 |  |  |  |  |  |  |  |  |  |  |  |  |  |  |  | 0.214 | 0.159 | 0.187 | 0.109 | 0.0907 |
| NCI-H1395 | 0.787 | 0.763 | 0.831 | 0.683 | 0.669 | 0.83 | 0.597 | 0.674 | 0.527 | 0.52 | 0.556 | 0.766 | 0.523 | 0.341 | 0.361 |  |  |  |  |  |
| NCI-H1563 |  |  |  |  |  | 0.821 | 0.751 | 0.773 | 0.754 | 0.775 |  |  |  |  |  | 1.1 | 1.14 | 1.01 | 0.579 | 0.552 |
| NCI-H1793 | 0.324 | 0.331 | 0.422 | 0.475 | 0.363 | 0.32 | 0.337 | 0.284 | 0.296 | 0.312 | 0.665 | 0.662 | 0.886 | 0.328 | 0.205 |  |  |  |  |  |
| NCI-H1623 | 0.453 | 0.487 | 0.419 | 0.416 | 0.353 | 0.481 | 0.404 | 0.455 | 0.41 | 0.385 |  |  |  |  |  |  |  |  |  |  |
